Data: publication PMC8022858, “Discovery of bone morphogenetic protein 7-derived peptide sequences that attenuate the human osteoarthritic chondrocyte phenotype” (Molecular Therapy. Methods & Clinical Development, 2021)

Tested on: HACs in OA synovial fluid (SF)
Test: Peptide bioactivity on HACs cultured in OA synovial fluid (gene expression, sGAG, ALP activity, PGE2)
Assay type: cell-based, human
Settings: 100 nM peptide, 20% (v/v) OA SF; for sGAG content of HAC cultures: 24 h (Figure 3D); for retainment of bioactivity on ALP activity in OA SF environment: 24 h (Figure 3E); for retainment of bioactivity on PGE2 secretion in OA SF environment: 24 h (Figure 3F); for expression of NKX3-2 / OA SF-induced expression of RUNX2, COL10A1, ALPL, MMP13, ADAMTS5, COX-2, and IL6 / OA SF-induced decline of SOX9 and COL2A1 expression: 24 h; for expression of NKX3-2: n = 3 donors (Figure 3A); for OA SF-induced expression of RUNX2, COL10A1, ALPL, MMP13, ADAMTS5, COX-2, and IL6: n = 3 donors (Figures 3B, 3C); for OA SF-induced decline of SOX9 and COL2A1 expression: n = 3 donors in triplicate (Figure 3A)
Text: To further corroborate the potential OA-protective properties of peptides p[63−82] and p[113−132], we mimicked the OA environment by exposing non-OA-HACs to OA SF. Culturing non-OA-HACs in the presence of OA SF reduced their SOX9, COL2A1, and NKX3-2 expression (Figure 3A), whereas expression of RUNX2, COL10A1, ALPL, MMP13, ADAMTS5, COX-2, and IL6 was induced by OA SF (Figures 3B and 3C). This was accompanied by increased ALP activity and PGE2 secretion (Figures 3E and 3F). […] The OA SF-induced expression of RUNX2, COL10A1, ALPL, MMP13, ADAMTS5, COX-2, and IL6 was, without exception, mitigated by peptides p[63−82] and p[113−132] (Figures 3B and 3C). sGAG content of HAC cultures was unaltered by the peptides (Figure 3D). Retainment of peptide p[63−82] and p[113−132] bioactivity on HACs in an OA SF environment was also confirmed for ALP activity (Figure 3E) and PGE2 secretion (Figure 3F).
Figure 3 Bioactivity of peptides p[63−82] and p[113−132] on OA articular chondrocytes in OA synovial fluid (SF) […] (n = 3 individual donors, tested in triplicate) were exposed to 100 nM peptide p[63−82] or p[113−132] in the presence of OA SF (20% [v/v]; equal ratio mix from five individual donors). Control is 20% (v/v) 0.9% NaCl. Cells were cultured in these conditions for 24 h and analyzed for mRNA expression of indicated genes (normalized for 28S rRNA expression and relative to control condition). (A) Expression of SOX9, COL2A1, and NKX3-2 mRNAs. (B) Expression of RUNX2, COL10A1, and ALPL mRNAs. (C) Expression of MMP13, ADAMTS5, COX-2, and IL-6 mRNAs. (D) GAG content (normalized to total protein content) was determined in the same conditions. (E) ALP enzyme activity in cell lysates of the same conditions was determined and normalized for total protein content. (F) PGE2 levels in culture supernatants of the same conditions. Error bars represent mean ± SEM, and statistical significance for peptide conditions or control versus SF condition as determined by unpaired two-tailed Student’s t test is represented as ∗p < 0.05, ∗∗p < 0.01, and ∗∗∗p < 0.001.
Cartilage was obtained from total knee arthroplasty of end-stage (K&L grades 3−4) OA patients and from resected knee cartilage from cartilage repair procedures of non-OA patients. Medical ethical permission was received from the Maastricht University Medical Center Medical Ethical Committee (approval number 2017-0183). Chondrocytes were isolated using collagenase as described earlier.[27] The HACs were cultured until passage two in DMEM/F12 (Life Technologies), 10% fetal calf serum (FCS; Sigma-Aldrich), 1% antibiotic/antimycotic (Life Technologies), and 1% non-essential amino acids (Life Technologies) in a humidified atmosphere at 37°C, 5% CO2. SW1353 cells (ATCC HTB-94, short tandem repeat [STR] profiled)[54] were cultured in identical conditions. For experiments, cells were plated in technical triplicates at 30,000 cells/cm^2. BMP7 (R&D Systems) was used at 1 nM. OA SF was perioperatively collected from OA patients (same medical ethics statement [2017-0183] as for cartilage above) and was centrifuged to remove cells/debris. For experiments, an SF pool from five OA patients was prepared (equal volume ratios) and applied on cells in a 20% (v/v) concentration. For RNAi, scrambled and NKX3-2 siRNA duplexes (Table S1) were custom made (Eurogentec). Transfection (100 nM siRNA) in HACs was performed using HiPerFect (QIAGEN) according to the manufacturer’s protocol. The BRE reporter,[32] CAGA12 reporter,[33] or cytomegalovirus (CMV)-Gaussia as transfection control[55] were transfected (100 ng/μL) in SW1353 cells using FuGENE (Promega) according to the manufacturer’s protocol. […]

| Substance | sGAG content of HAC cultures | retainment of bioactivity on ALP activity in OA SF environment | retainment of bioactivity on PGE2 secretion in OA SF environment | expression of NKX3-2 | OA SF-induced expression of RUNX2, COL10A1, ALPL, MMP13, ADAMTS5, COX-2, and IL6 | OA SF-induced decline of SOX9 and COL2A1 expression |
| --- | --- | --- | --- | --- | --- | --- |
| H-AAYYSEGESAFPLNSYMNAT-OH [p[63−82]] | unaltered | confirmed | confirmed | induced by the peptides to levels higher than in the control condition | mitigated | counteracted to some extent |
| H-SVLYFDDSSNVILKKYRNMV-OH [p[113−132]] | unaltered | confirmed | confirmed | induced by the peptides to levels higher than in the control condition | mitigated | counteracted to some extent |
